Reference: the supplement of paper PMC9663587

Columns and labels:
[1] = compound: Cc1nn(C)c(COc2ccc(N3CCN(S(=O)(=O)N(C)C)CC3)cc2)c1-c1cccc2c(CCCOc3cccc4ccccc34)c(C(=O)O)n(CCN3CCOCC3)c12; experiment: increase in dead-cell fraction, 72 h; higher = more death;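 also: breast cancer cell lines in 384-well plates, stained with Hoechst plus LIVE/DEAD far red dye and imaged, cells above an LDR intensity threshold counted dead, Hoechst-negative corpses included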
[2] = compound: CC(C)NC[C@@H](C(=O)N1CCN(c2ncnc3c2[C@H](C)C[C@H]3O)CC1)c1ccc(Cl)cc1 [Ipatasertib/GDC0068]; experiment: as above
[3] = compound: CNC(=O)c1cccc(-c2ccc3c(N4CCOC[C@@H]4C)nc(N4CCOC[C@@H]4C)nc3n2)c1 [AZD2014]; experiment: as above
[4] = compound: CCC(=O)Nc1ccc(C(=O)Nc2ccc(Nc3ncc4c(n3)N(C)c3ccc(C)cc3C(=O)N4C)cc2)cc1 [FMF-03-145-1]; experiment: as above
[5] = compound: CNc1nc(-c2ccc3c(N)n[nH]c3c2)cc(N2C[C@@H](C(=O)NC3CCCCC3)CC[C@H]2C)n1; experiment: as above
[6] = compound: CC1=CN2C(=O)C=C(N=C2C(=C1)C(C)NC3=CC=CC=C3)N4CCOCC4 [TGX221]; experiment: as above
[7] = compound: CCNC(=O)c1noc(-c2cc(C(C)C)c(O)cc2O)c1-c1ccc(CN2CCOCC2)cc1 [Luminespib/NVP-AUY922]; experiment: as above
[8] = compound: COc1cccc2c1C(=O)c1c(O)c3c(c(O)c1C2=O)C[C@@](O)(C(=O)CO)C[C@@H]3O[C@H]1C[C@H](N)[C@H](O)[C@H](C)O1 [Doxorubicin]; experiment: as above
[9] = compound: CCCCOc1c(C(=O)c2c(F)cc(C)cc2F)c[nH]c2nncc1-2; experiment: as above
[10] = compound: CC(C)Nc1cc(-c2c[nH]c(C(=O)N[C@H](CO)c3cccc(Cl)c3)c2)c(Cl)cn1 [BVD523]; experiment: as above
[11] = compound: CC[C@@H]1C(=O)N(C)c2cnc(Nc3ccc(C(=O)N[C@H]4CC[C@H](N5CCN(CC6CC6)CC5)CC4)cc3OC)nc2N1C(C)C [Volasertib/BI6727]; experiment: GR value, 72 h; higher = faster growth (1 = untreated, <0 = killing);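 also: breast cancer and non-malignant breast epithelial lines, nine half-log doses, viable cells counted by Hoechst and LIVE/DEAD dye imaging versus time-zero plates and DMSO controls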
[12] = compound: CC(=O)O[C@H]1C(=O)[C@@]2(C)[C@H]([C@H](OC(=O)c3ccccc3)[C@]3(O)C[C@H](OC(=O)[C@H](O)[C@@H](NC(=O)c4ccccc4)c4ccccc4)C(C)=C1C3(C)C)[C@]1(OC(C)=O)CO[C@@H]1C[C@@H]2O [Paclitaxel]; experiment: as above

Cell Line: AU565
- increase in dead-cell fraction ([1]; 0.001 µM): 0.0054
- increase in dead-cell fraction ([1]; 0.003162 µM): 0.0034
- increase in dead-cell fraction ([1]; 0.01 µM): 0.0061
- increase in dead-cell fraction ([1]; 0.03162 µM): 0.0001
- increase in dead-cell fraction ([1]; 0.1 µM): 0.0007
- increase in dead-cell fraction ([1]; 0.3162 µM): -0.0037
- increase in dead-cell fraction ([1]; 1 µM): 0.0003
- increase in dead-cell fraction ([1]; 3.162 µM): 0.0012
- increase in dead-cell fraction ([1]; 10 µM): 0.0111
- increase in dead-cell fraction ([2]; 0.001 µM): 0.0001
- increase in dead-cell fraction ([2]; 0.003162 µM): 0.0023
- increase in dead-cell fraction ([2]; 0.01 µM): -0.0023
- increase in dead-cell fraction ([2]; 0.03162 µM): -0.0006
- increase in dead-cell fraction ([2]; 0.1 µM): 0.0018
- increase in dead-cell fraction ([2]; 0.3162 µM): 0.0082
- increase in dead-cell fraction ([2]; 1 µM): 0.0032
- increase in dead-cell fraction ([2]; 3.162 µM): 0.0084
- increase in dead-cell fraction ([2]; 10 µM): 0.0293
- increase in dead-cell fraction ([3]; 0.001 µM): 0.0342
- increase in dead-cell fraction ([3]; 0.003162 µM): 0.0014
- increase in dead-cell fraction ([3]; 0.01 µM): 0.032
- increase in dead-cell fraction ([3]; 0.03162 µM): 0.0412
- increase in dead-cell fraction ([3]; 0.1 µM): 0.0311
- increase in dead-cell fraction ([3]; 0.3162 µM): 0.107
- increase in dead-cell fraction ([3]; 1 µM): 0.0854
- increase in dead-cell fraction ([3]; 3.162 µM): 0.0584
- increase in dead-cell fraction ([3]; 10 µM): 0.126
- increase in dead-cell fraction ([4]; 0.0001 µM): 0.0006
- increase in dead-cell fraction ([4]; 0.0003162 µM): 0.0131
- increase in dead-cell fraction ([4]; 0.001 µM): 0.0011
- increase in dead-cell fraction ([4]; 0.003162 µM): 0.0053
- increase in dead-cell fraction ([4]; 0.01 µM): 0.231
- increase in dead-cell fraction ([4]; 0.03162 µM): 0.127
- increase in dead-cell fraction ([4]; 0.1 µM): 0.102
- increase in dead-cell fraction ([5]; 0.001 µM): -0.0175
- increase in dead-cell fraction ([5]; 0.003162 µM): 0.001
- increase in dead-cell fraction ([5]; 0.01 µM): 0.0046
- increase in dead-cell fraction ([5]; 0.03162 µM): 0.0008
- increase in dead-cell fraction ([5]; 0.1 µM): 0.0065
- increase in dead-cell fraction ([5]; 0.3162 µM): 0.0014
- increase in dead-cell fraction ([5]; 1 µM): 0.0253
- increase in dead-cell fraction ([5]; 3.162 µM): 0.0252
- increase in dead-cell fraction ([5]; 10 µM): 0.0432
- increase in dead-cell fraction ([6]; 0.001 µM): 0
- increase in dead-cell fraction ([6]; 0.003162 µM): -0.0043
- increase in dead-cell fraction ([6]; 0.01 µM): -0.0042
- increase in dead-cell fraction ([6]; 0.03162 µM): -0.0019
- increase in dead-cell fraction ([6]; 0.1 µM): 0.0014
- increase in dead-cell fraction ([6]; 0.3162 µM): 0.003
- increase in dead-cell fraction ([6]; 1 µM): 0.0069
- increase in dead-cell fraction ([6]; 3.162 µM): 0.0045
- increase in dead-cell fraction ([6]; 10 µM): 0.0099
- increase in dead-cell fraction ([7]; 0.0001 µM): -0.0018
- increase in dead-cell fraction ([7]; 0.0003162 µM): -0.0005
- increase in dead-cell fraction ([7]; 0.001 µM): -0.0013
- increase in dead-cell fraction ([7]; 0.003162 µM): 0.0017
- increase in dead-cell fraction ([7]; 0.01 µM): 0.0215
- increase in dead-cell fraction ([7]; 0.03162 µM): 0.03
- increase in dead-cell fraction ([7]; 0.1 µM): 0.0462
- increase in dead-cell fraction ([7]; 0.3162 µM): 0.0389
- increase in dead-cell fraction ([7]; 1 µM): 0.0492
- increase in dead-cell fraction ([8]; 0.0003162 µM): 0.0037
- increase in dead-cell fraction ([8]; 0.001 µM): 0.0029
- increase in dead-cell fraction ([8]; 0.003162 µM): -0.0003
- increase in dead-cell fraction ([8]; 0.01 µM): -0.0009
- increase in dead-cell fraction ([8]; 0.03162 µM): 0.0192
- increase in dead-cell fraction ([8]; 0.1 µM): 0.0682
- increase in dead-cell fraction ([8]; 0.3162 µM): 0.138
- increase in dead-cell fraction ([8]; 1 µM): 0.199
- increase in dead-cell fraction ([8]; 3.162 µM): 0.22
- increase in dead-cell fraction ([9]; 0.001 µM): 0.0215
- increase in dead-cell fraction ([9]; 0.003162 µM): -0.004
- increase in dead-cell fraction ([9]; 0.01 µM): 0.0231
- increase in dead-cell fraction ([9]; 0.03162 µM): 0.0204
- increase in dead-cell fraction ([9]; 0.1 µM): 0.0353
- increase in dead-cell fraction ([9]; 0.3162 µM): 0.0286
- increase in dead-cell fraction ([9]; 1 µM): 0.0615
- increase in dead-cell fraction ([9]; 3.162 µM): 0.0772
- increase in dead-cell fraction ([9]; 10 µM): 0.136
- increase in dead-cell fraction ([10]; 0.001 µM): -0.0105
- increase in dead-cell fraction ([10]; 0.003162 µM): -0.0083
- increase in dead-cell fraction ([10]; 0.01 µM): -0.0074
- increase in dead-cell fraction ([10]; 0.03162 µM): -0.0063
- increase in dead-cell fraction ([10]; 0.1 µM): -0.0004
- increase in dead-cell fraction ([10]; 0.3162 µM): -0.0069
- increase in dead-cell fraction ([10]; 1 µM): 0.0092
- increase in dead-cell fraction ([10]; 3.162 µM): 0.0104
- increase in dead-cell fraction ([10]; 10 µM): 0.0436
- GR value ([11]; 0.0001 µM): 1.07 GR
- GR value ([11]; 0.0003162 µM): 0.998 GR
- GR value ([11]; 0.001 µM): 0.912 GR
- GR value ([11]; 0.003162 µM): 0.756 GR
- GR value ([11]; 0.01 µM): -0.409 GR
- GR value ([11]; 0.03162 µM): -0.516 GR
- GR value ([11]; 0.1 µM): -0.458 GR
- GR value ([11]; 0.3162 µM): -0.455 GR
- GR value ([11]; 1 µM): -0.206 GR
- GR value ([12]; 0.0001 µM): 1.05 GR
- GR value ([12]; 0.0003162 µM): 1.1 GR
- GR value ([12]; 0.001 µM): 0.919 GR
- GR value ([12]; 0.003162 µM): -0.244 GR
- GR value ([12]; 0.01 µM): -0.459 GR
- GR value ([12]; 0.03162 µM): -0.515 GR
- GR value ([12]; 0.1 µM): -0.482 GR
- GR value ([12]; 0.3162 µM): -0.467 GR
- GR value ([12]; 1 µM): -0.475 GR
